Values quoted from earlier work in PubChem BioAssay AID1259409 (Chemical Carcinogenesis Research Information System (CCRIS), 2018).
Where a SMILES comes first, the peptide text is derived from it. Bridges are numbered along the chain shown (N, C = ends). [ ]: non-standard residue; d: D form.

Test system: rodent chemically induced tumor inhibition, incidence and multiplicity
Assay: CCRIS tumor inhibitor studies

CC(C)[C@@H]1NC(=O)[C@H](CCCCN)NC(=O)[C@@H](Cc2c[nH]c3ccccc23)NC(=O)[C@H](Cc2ccc(O)cc2)NC(=O)[C@@H](NC(=O)[C@H](N)Cc2ccccc2)CSSC[C@@H](C(=O)N[C@@H](Cc2c[nH]c3ccccc23)C(N)=O)NC1=O (H-[dF]CY[dW]KVCW-NH2; disulfide 2-7)
tumour outcome (control, treated, inhibition, significance) (Carcinogen: N-BUTYL-N-(4-HYDROXYBUTYL)NITROSAMINE, 3817-11-6, Dose [Inhibitor]: 0, 50 UG/RAT/D FOR 12 WK BEGINNING POST CARCINOGEN TREATMENT (STUDY DURATION: 17 WK), Route [Inhibitor]: SUBCUTANEOUS, Species: RAT, Strain/Sex: F344/FEMALE, Target Tissue: Type of Lesion: URINARY BLADDER: CARCINOMA IN SITU, Dose [Carcinogen]: 0.05% IN DRINKING WATER FOR 4 WK, Promoter: MITOMYCIN C, 50-07-7): 10/40 (25%), 1/20 (5%), 80%, p<0.001
tumour outcome (control, treated, inhibition, significance) (Carcinogen: N-BUTYL-N-(4-HYDROXYBUTYL)NITROSAMINE, 3817-11-6, Dose [Inhibitor]: 0, 50 UG/RAT/D FOR 12 WK BEGINNING POST CARCINOGEN TREATMENT (STUDY DURATION: 17 WK), Route [Inhibitor]: SUBCUTANEOUS, Species: RAT, Strain/Sex: F344/FEMALE, Target Tissue: Type of Lesion: URINARY BLADDER: INVASIVE CARCINOMA, Dose [Carcinogen]: 0.05% IN DRINKING WATER FOR 4 WK, Promoter: MITOMYCIN C, 50-07-7): 12/40 (30%), 0/20 (0%), 100%, not calculated
tumour outcome (control, treated, inhibition, significance) (Carcinogen: N-BUTYL-N-(4-HYDROXYBUTYL)NITROSAMINE, 3817-11-6, Dose [Inhibitor]: 0, 50 UG/RAT/D FOR 12 WK BEGINNING POST CARCINOGEN TREATMENT (STUDY DURATION: 17 WK), Route [Inhibitor]: SUBCUTANEOUS, Species: RAT, Strain/Sex: F344/FEMALE, Target Tissue: Type of Lesion: URINARY BLADDER: PAPILLOMA, Dose [Carcinogen]: 0.05% IN DRINKING WATER FOR 4 WK, Promoter: MITOMYCIN C, 50-07-7): 20/40 (50%), 11/20 (55%), -10%, not significant
tumour outcome (control, treated, inhibition, significance) (Carcinogen: N-NITROSOBIS(2-OXOPROPYL)AMINE, 60599-38-4, Dose [Inhibitor]: 0, 35 UG/D FROM OSMOTIC PUMP FOR 2 MO, Route [Inhibitor]: SUBCUTANEOUS IMPLANT, Species: HAMSTER, Strain/Sex: SYRIAN/FEMALE, Target Tissue: Type of Lesion: PANCREAS: ADENOCARCINOMA, Promoter: NONE USED): 12/12 (100%), 6/11 (55%), 45%, not calculated

NC(Cc1c[nH]c2ccccc12)C(=O)O (stereo not given)
tumour outcome (control, treated, inhibition, significance) (Carcinogen: N-BUTYL-N-(4-HYDROXYBUTYL)NITROSAMINE, 3817-11-6, Dose [Inhibitor]: 5% DIET DAILY FOR 34 WK STARTING AT COMPLETION OF CARCINOGEN TREATMENT (STUDY DURATION: 38 WK), Route [Inhibitor]: ORAL, Species: RAT, Strain/Sex: F344/MALE, Target Tissue: Type of Lesion: URINARY BLADDER: PAPILLOMA, Dose [Carcinogen]: 0.01% IN DRINKING WATER FOR 4 WK, Promoter: NONE USED): 33%, 27%, 18%, not significant

CC(C)c1cc(C(=O)O)c([O-])c(C(C)C)c1.CC(C)c1cc(C(=O)O)c([O-])c(C(C)C)c1.[Cu+2]
tumour outcome (control, treated, inhibition, significance) (Carcinogen: 7,12-DIMETHYLBENZ[A]ANTHRACENE, 57-97-6, Dose [Inhibitor]: 500 NMOL IN 0.2 ML ACETONE APPLIED ONCE TO DORSAL SKIN 15 MIN PRIOR TO CARCINOGEN DOSE (STUDY DURATION: 20 WK), Route [Inhibitor]: DERMAL, Species: MOUSE, Strain/Sex: SENCAR/FEMALE, Target Tissue: Type of Lesion: SKIN: PAPILLOMA, Dose [Carcinogen]: 10 NMOL IN 0.2 ML ACETONE ONCE): 100%, 100%, 0%, not significant
tumour outcome (control, treated, inhibition, significance) (Carcinogen: 7,12-DIMETHYLBENZ[A]ANTHRACENE, 57-97-6, Dose [Inhibitor]: 1000 NMOL IN 0.2 ML ACETONE APPLIED ONCE TO DORSAL SKIN 15 MIN PRIOR TO CARCINOGEN DOSE (STUDY DURATION: 20 WK), Route [Inhibitor]: DERMAL, Species: MOUSE, Strain/Sex: SENCAR/FEMALE, Target Tissue: Type of Lesion: SKIN: PAPILLOMA, Dose [Carcinogen]: 10 NMOL IN 0.2 ML ACETONE ONCE): 100%, 100%, 0%, not significant
tumour outcome (control, treated, inhibition, significance) (Carcinogen: 7,12-DIMETHYLBENZ[A]ANTHRACENE, 57-97-6, Dose [Inhibitor]: 2000 NMOL IN 0.2 ML ACETONE APPLIED ONCE TO DORSAL SKIN 15 MIN PRIOR TO CARCINOGEN DOSE (STUDY DURATION: 20 WK), Route [Inhibitor]: DERMAL, Species: MOUSE, Strain/Sex: SENCAR/FEMALE, Target Tissue: Type of Lesion: SKIN: PAPILLOMA, Dose [Carcinogen]: 10 NMOL IN 0.2 ML ACETONE ONCE): 100%, 100%, 0%, not significant
tumour outcome (control, treated, inhibition, significance) (Carcinogen: BENZO[A]PYRENE, 50-32-8, Dose [Inhibitor]: 100 NMOL IN 0.2 ML ACETONE APPLIED ONCE TO DORSAL SKIN 15 MIN PRIOR TO CARCINOGEN DOSE (STUDY DURATION: 20 WK), Route [Inhibitor]: DERMAL, Species: MOUSE, Strain/Sex: SENCAR/FEMALE, Target Tissue: Type of Lesion: SKIN: PAPILLOMA, Dose [Carcinogen]: 200 NMOL IN 0.2 ML ACETONE ONCE): 97%, 93%, 4%, not calculated
tumour outcome (control, treated, inhibition, significance) (Carcinogen: BENZO[A]PYRENE, 50-32-8, Dose [Inhibitor]: 500 NMOL IN 0.2 ML ACETONE APPLIED ONCE TO DORSAL SKIN 15 MIN PRIOR TO CARCINOGEN DOSE (STUDY DURATION: 20 WK), Route [Inhibitor]: DERMAL, Species: MOUSE, Strain/Sex: SENCAR/FEMALE, Target Tissue: Type of Lesion: SKIN: PAPILLOMA, Dose [Carcinogen]: 200 NMOL IN 0.2 ML ACETONE ONCE): 97%, 93%, 4%, not calculated
tumour outcome (control, treated, inhibition, significance) (Carcinogen: BENZO[A]PYRENE, 50-32-8, Dose [Inhibitor]: 1000 NMOL IN 0.2 ML ACETONE APPLIED ONCE TO DORSAL SKIN 15 MIN PRIOR TO CARCINOGEN DOSE (STUDY DURATION: 20 WK), Route [Inhibitor]: DERMAL, Species: MOUSE, Strain/Sex: SENCAR/FEMALE, Target Tissue: Type of Lesion: SKIN: PAPILLOMA, Dose [Carcinogen]: 200 NMOL IN 0.2 ML ACETONE ONCE): 97%, 100%, -3%, not calculated
tumour outcome (control, treated, inhibition, significance) (Carcinogen: BENZO[A]PYRENE, 50-32-8, Dose [Inhibitor]: 2000 NMOL IN 0.2 ML ACETONE APPLIED ONCE TO DORSAL SKIN 15 MIN PRIOR TO CARCINOGEN DOSE (STUDY DURATION: 20 WK), Route [Inhibitor]: DERMAL, Species: MOUSE, Strain/Sex: SENCAR/FEMALE, Target Tissue: Type of Lesion: SKIN: PAPILLOMA, Dose [Carcinogen]: 200 NMOL IN 0.2 ML ACETONE ONCE): 97%, 90%, 7%, not calculated
tumour outcome (control, treated, inhibition, significance) (Carcinogen: BENZO[A]PYRENE, 50-32-8, Dose [Inhibitor]: 4000 NMOL IN 0.2 ML ACETONE APPLIED ONCE TO DORSAL SKIN 15 MIN PRIOR TO CARCINOGEN DOSE (STUDY DURATION: 20 WK), Route [Inhibitor]: DERMAL, Species: MOUSE, Strain/Sex: SENCAR/FEMALE, Target Tissue: Type of Lesion: SKIN: PAPILLOMA, Dose [Carcinogen]: 200 NMOL IN 0.2 ML ACETONE ONCE): 97%, 96%, 0.3%, not calculated

CC(=C/C=C/C(C)=C/C=C/C=C(C)/C=C/C=C(\C)C=C=C1C(C)(C)C[C@H](O)C[C@@]1(C)O)/C=C/[C@@]12O[C@]1(C)C[C@@H](O)CC2(C)C
tumour outcome (control, treated, inhibition, significance) (Carcinogen: 7,12-DIMETHYLBENZ[A]ANTHRACENE, 57-97-6, Dose [Inhibitor]: 0, 0.2 UG IN 0.2 ML ACETONE APPLIED TO BUCCAL POUCH 2/WK FOR 2 WK 1 HR PRIOR TO EACH PROMOTER DOSE (STUDY DURATION: 34 W, Route [Inhibitor]: MUCOUS MEMBRANE, Species: HAMSTER, Strain/Sex: SYRIAN/MALE,FEMALE, Target Tissue: Type of Lesion: BUCCAL POUCH: TUMOR, Dose [Carcinogen]: 200 NMOL IN 0.2 ML ACETONE 3/WK FOR 2 WK, Promoter: 12-O-TETRADECANOYLPHORBOL-13-ACETATE, 16561-29-8): 3/6 (50%), 0/6 (0%), 100%, not calculated
tumour outcome (control, treated, inhibition, significance) (Carcinogen: 7,12-DIMETHYLBENZ[A]ANTHRACENE, 57-97-6, Dose [Inhibitor]: 0, 0.2 UG IN 0.2 ML ACETONE APPLIED TO BUCCAL POUCH 3/WK FOR 2 WK 1 HR PRIOR TO EACH CARCINOGEN DOSE (STUDY DURATION: 34, Route [Inhibitor]: MUCOUS MEMBRANE, Species: HAMSTER, Strain/Sex: SYRIAN/MALE,FEMALE, Target Tissue: Type of Lesion: BUCCAL POUCH: TUMOR, Dose [Carcinogen]: 200 NMOL IN 0.2 ML ACETONE 3/WK FOR 2 WK, Promoter: 12-O-TETRADECANOYLPHORBOL-13-ACETATE, 16561-29-8): 3/6 (50%), 0/6 (0%), 100%, not calculated
